Laboratory results reported in ChEMBL document CHEMBL1125184, “Active conformation of 1,4-dihydropyridine calcium entry blockers. Effect of size of 2-aryl substituent on rotameric equilibria and receptor binding” (J Med Chem, 1991).

Test: Slope was measured from percentage of specific binding with time

SMILES | Slope
CCCC(=O)OC.CO/C(O)=C1/C(C)=NCCC1c1ccccc1Cl (centres undefined) | 1.4
CCCC(=O)OC.CO/C(O)=C1/C(C)=NCCC1c1ccccc1I (centres undefined) | 1.2
CCCC(=O)OC.CO/C(O)=C1/C(C)=NCCC1c1ccccc1F (centres undefined) | 1.6
CCCC(=O)OC.CO/C(O)=C1/C(C)=NCCC1c1ccccc1Br (centres undefined) | 1.3
